Like-named read-outs stand apart in the source and are kept apart here.

In patent publication US12403135B2, “4H-pyrrolo[3,2-c]pyridin-4-one derivatives” (Bayer Aktiengesellschaft, priority 2019, dated 2025) one finds IC50 and GI50 data, which are given here for 3 compounds.

Format in all cases: cell-based
Assay [1] deals with Ba/F3-EGFR-delLREA cells (EGFR del19/delLREA (746-750), E746_A750del). Nature of the assay: BA/F3 EGFR del19/delLREA (746-750) (E746_A750del) cell survival assay, Cell Titer-Glo. The method, then: (§1) Plates were incubated at 37° C. for 48 h. Retrovirus was harvested by filtering the media supernatant through a 0.45 μm filter.
(§2) Ba/F3 cells purchased from DSMZ were grown in RPMI+10% FBS+10 ng/mL IL-3 and infected with filtered retroviral supernatant at a 1:2 dilution. Polybrene was added to a concentration of 8 μg/mL, plates were spun for 90 min, and incubated overnight at 37° C. 2 μg/mL puromycin was added to the infected cells 24 h after infection and cells were continually grown in the presence of puromycin and 10 ng/mL IL-3. Following stably expressing Ba/F3 cell lines were generated: Ba/F3-EGFR-L858R, Ba/F3-EGFR-delLREA, (Ba/F3-vector-control).
(§3) For cell survival assays, Ba/F3 cells were grown to a density of 1-2 million cells per mL, spun down and resuspended in media without IL-3, and replated at a concentration 200,000-500,000 cells per mL. The cells ectopically expressing pBABEpuro empty vector were plated with 10 ng/mL IL-3.
(§4) 2 days later, cells were plated in 50 μL in a 384 well plate at a concentration of 4000 cells per well for cells assayed in the absence of IL-3 and 2000 cells per well for cells (pBABE puro empty vector) assayed in the presence of IL-3. 100 nL of compound was added to each well using a 100 nL pin head, and plates were incubated at 37° C. for 48 h.
(§5) Cell viability was measured by adding 20 μL of Cell Titer-Glo Luminescent Cell Viability Reagent diluted 1:3 in PBS. Plates were sealed with Perkin Elmer Top-Seal, inverted several times to mix, and immediately centrifuged at 1000 rpm for 2 min. Plates were incubated in low light conditions for 8-10 min and luminescence was measured.
For orientation: ATP-based viability assays read luminescence as a measure of living cells.

Assay [2] addresses Ba/F3-EGFR-WT cells (BA/F3 wild type EGFR) (Homo sapiens, UniProt P00533). Kind of assay: BA/F3 (wild type) proliferation assay, Cell Titer-Glo. To be noted: Table 7; plated with 10 ng/mL EGF, without IL-3, 48 h; read-out: BA/F3 (wild type) IC50. As to the method: as §1
Ba/F3 cells purchased from DSMZ were grown in RPMI+10% FBS+10 ng/mL IL-3 and infected with filtered retroviral supernatant at a 1:2 dilution. Polybrene was added to a concentration of 8 μg/mL, plates were spun for 90 min, and incubated overnight at 37° C. 2 μg/mL puromycin was added to the infected cells 24 h after infection and cells were continually grown in the presence of puromycin and 10 ng/mL IL-3. Following stably expressing Ba/F3 cell lines were generated: Ba/F3-EGFR-WT.
For cell survival assays, Ba/F3 cells were grown to a density of 1-2 million cells per mL, spun down and resuspended in media without IL-3, and replated at a concentration 200,000-500,000 cells per mL. The cells ectopically expressing WT EGFR were plated with 10 ng/mL Millipore Culture grade EGF.
24 hours later, cells were plated in 30 μL in a 384 well plate at a concentration of 3200 cells per well for cells assayed in the absence of IL-3. 100 nL of compound was added to each well using a 100 nL pin head, and plates were incubated at 37° C. for 48 h.
Cell viability was measured by adding 30 μL of Cell Titer-Glo Luminescent Cell Viability Reagent. Plates were sealed with Perkin Elmer Top-Seal, inverted several times to mix, and immediately centrifuged at 1000 rpm for 2 min. Plates were incubated in low light conditions for 8-10 min and luminescence was measured.

A further assay deals with Ba/F3-EGFR-L858R cells (Homo sapiens, UniProt P00533, L858R, cells depend on it). Nature of the assay: BA/F3 EGFR L858R cell survival assay, Cell Titer-Glo. As to conditions: read-out: BA/F3 (EGFR L858R) IC50. The method, then:
as §1, §2, §3, §4, §5

For assay [3], the target named is Ba/F3-EGFR-V769_D770 insASV cells (Homo sapiens, UniProt P00533, DUP767-769, cells depend on it). Kind of assay: BA/F3 (ASV) proliferation, EGFR Exon20 insertion mutation. As to conditions: Table 9; EGFR Exon20 insertion mutations; read-out: BA/F3 (ASV) IC50. As to the method:
as §1
as §2, with “Ba/F3-EGFR-V769_D770 insASV, Ba/F3-EGFR-D770_N771 insNPG, Ba/F3-EGFR-N771_P772 insH, Ba/F3-EGFR-H773_V774 insNPH, Ba/F3-EGFR-D770_N771 insSVD C797S, Ba/F3-EGFR-E746_A750del C797S, Ba/F3-EGFR-L858R C797S, Ba/F3-EGFR L861Q and Ba/F3-ERBB2-A775_G776insYVMA” for “Ba/F3-EGFR-L858R, Ba/F3-EGFR-delLREA,”

In assay [4] the test system is Ba/F3-EGFR-D770_N771 insSVD C797S cells. Kind of assay: BA/F3 (EGFR D770_N771 insSVD C797S) proliferation, acquired resistance. As to conditions: Ba/F3 EGFR-D770-N771ins_SVD; Table 11; acquired resistance space. The method, then:
as §1
as §2, with “Ba/F3-EGFR-V769_D770 insASV, Ba/F3-EGFR-D770_N771 insNPG, Ba/F3-EGFR-N771_P772 insH, Ba/F3-EGFR-H773_V774 insNPH, Ba/F3-EGFR-D770_N771 insSVD C797S, Ba/F3-EGFR-E746_A750del C797S, Ba/F3-EGFR-L858R C797S, Ba/F3-EGFR L861Q and Ba/F3-ERBB2-A775_G776insYVMA” for “Ba/F3-EGFR-L858R, Ba/F3-EGFR-delLREA,”

Assay [5] deals with Ba/F3-ERBB2-A775_G776insYVMA cells (Homo sapiens, UniProt P04626, DUP772-775, cells depend on it). Kind of assay: BA/F3 (ERBB2 A775_G776 insYVMA) proliferation. As to conditions: Table 12; read-out: BA/F3 (ERBB2 A775_G776 insYVMA) IC50. The method, then: as §1
Ba/F3-ERBB2-A775_G776insYVMA cells, sequence (P04626 with tags, fused parts or gaps DUP772-775): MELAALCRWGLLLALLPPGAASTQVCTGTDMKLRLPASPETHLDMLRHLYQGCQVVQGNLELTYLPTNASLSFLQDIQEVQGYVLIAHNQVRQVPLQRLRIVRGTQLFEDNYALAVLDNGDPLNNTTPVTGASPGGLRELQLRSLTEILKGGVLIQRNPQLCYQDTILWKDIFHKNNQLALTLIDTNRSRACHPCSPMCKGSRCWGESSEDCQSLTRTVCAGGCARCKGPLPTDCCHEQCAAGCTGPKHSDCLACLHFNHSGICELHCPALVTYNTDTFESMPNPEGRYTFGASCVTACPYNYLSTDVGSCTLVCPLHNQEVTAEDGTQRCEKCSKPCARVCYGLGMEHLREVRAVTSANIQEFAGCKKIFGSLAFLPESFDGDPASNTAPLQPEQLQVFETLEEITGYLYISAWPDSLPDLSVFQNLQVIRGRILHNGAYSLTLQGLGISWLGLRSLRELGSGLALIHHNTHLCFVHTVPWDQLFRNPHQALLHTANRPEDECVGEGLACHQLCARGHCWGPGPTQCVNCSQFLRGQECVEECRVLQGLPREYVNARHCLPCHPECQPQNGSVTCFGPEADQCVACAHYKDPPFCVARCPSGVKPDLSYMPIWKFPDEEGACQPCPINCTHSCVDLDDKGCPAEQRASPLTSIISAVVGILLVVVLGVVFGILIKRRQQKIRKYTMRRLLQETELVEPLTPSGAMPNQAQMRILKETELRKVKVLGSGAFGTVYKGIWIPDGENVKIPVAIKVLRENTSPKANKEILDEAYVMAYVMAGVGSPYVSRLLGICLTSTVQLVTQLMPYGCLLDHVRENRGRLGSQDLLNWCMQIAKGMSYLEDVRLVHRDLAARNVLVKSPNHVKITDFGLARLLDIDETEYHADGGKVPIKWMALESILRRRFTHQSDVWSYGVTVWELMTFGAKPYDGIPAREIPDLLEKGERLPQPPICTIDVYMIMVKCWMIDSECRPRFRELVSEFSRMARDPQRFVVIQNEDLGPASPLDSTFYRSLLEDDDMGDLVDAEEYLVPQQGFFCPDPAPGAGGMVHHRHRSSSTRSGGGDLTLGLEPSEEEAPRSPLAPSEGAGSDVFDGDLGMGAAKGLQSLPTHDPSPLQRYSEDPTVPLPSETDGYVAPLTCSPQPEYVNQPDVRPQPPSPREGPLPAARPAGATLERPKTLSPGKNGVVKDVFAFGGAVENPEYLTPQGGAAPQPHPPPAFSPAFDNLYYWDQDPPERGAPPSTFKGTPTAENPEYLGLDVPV
as §2, with “Ba/F3-EGFR-V769_D770 insASV, Ba/F3-EGFR-D770_N771 insNPG, Ba/F3-EGFR-N771_P772 insH, Ba/F3-EGFR-H773_V774 insNPH, Ba/F3-EGFR-D770_N771 insSVD C797S, Ba/F3-EGFR-E746_A750del C797S, Ba/F3-EGFR-L858R C797S, Ba/F3-EGFR L861Q and Ba/F3-ERBB2-A775_G776insYVMA” for “Ba/F3-EGFR-L858R, Ba/F3-EGFR-delLREA,”

The subject of a further assay is Ba/F3-EGFR L861Q cells. Nature of the assay: BA/F3 (EGFR L861Q) proliferation, uncommon EGFR mutation. As to conditions: Table 10, classical activating and uncommon EGFR mutations. The method, then:
as §1
as §2, with “Ba/F3-EGFR-V769_D770 insASV, Ba/F3-EGFR-D770_N771 insNPG, Ba/F3-EGFR-N771_P772 insH, Ba/F3-EGFR-H773_V774 insNPH, Ba/F3-EGFR-D770_N771 insSVD C797S, Ba/F3-EGFR-E746_A750del C797S, Ba/F3-EGFR-L858R C797S, Ba/F3-EGFR L861Q and Ba/F3-ERBB2-A775_G776insYVMA” for “Ba/F3-EGFR-L858R, Ba/F3-EGFR-delLREA,”

The target in assay [6] is Ba/F3-EGFR-D770_N771 insNPG cells (Homo sapiens, UniProt P00533, INS772GNP, cells depend on it). Nature of the assay: BA/F3 (insNPG) proliferation, EGFR Exon20 insertion mutation. As to conditions: Table 9; EGFR Exon20 insertion mutations; read-out: BA/F3 (insNPG) IC50. The method, then:
as §1
as §2, with “Ba/F3-EGFR-V769_D770 insASV, Ba/F3-EGFR-D770_N771 insNPG, Ba/F3-EGFR-N771_P772 insH, Ba/F3-EGFR-H773_V774 insNPH, Ba/F3-EGFR-D770_N771 insSVD C797S, Ba/F3-EGFR-E746_A750del C797S, Ba/F3-EGFR-L858R C797S, Ba/F3-EGFR L861Q and Ba/F3-ERBB2-A775_G776insYVMA” for “Ba/F3-EGFR-L858R, Ba/F3-EGFR-delLREA,”

Assay [7] deals with Ba/F3-EGFR-E746_A750del C797S cells. Nature of the assay: BA/F3 (EGFR E746_A750del C797S) proliferation, acquired resistance. To be noted: Table 11, acquired resistance space. As to the method: as §1
as §2, with “Ba/F3-EGFR-V769_D770 insASV, Ba/F3-EGFR-D770_N771 insNPG, Ba/F3-EGFR-N771_P772 insH, Ba/F3-EGFR-H773_V774 insNPH, Ba/F3-EGFR-D770_N771 insSVD C797S, Ba/F3-EGFR-E746_A750del C797S, Ba/F3-EGFR-L858R C797S, Ba/F3-EGFR L861Q and Ba/F3-ERBB2-A775_G776insYVMA” for “Ba/F3-EGFR-L858R, Ba/F3-EGFR-delLREA,”

Assay [8] concerns Ba/F3-EGFR-L858R C797S cells. Kind of assay: BA/F3 (EGFR L858R C797S) proliferation, acquired resistance. To be noted: Table 11, acquired resistance space. As to the method:
as §1
as §2, with “Ba/F3-EGFR-V769_D770 insASV, Ba/F3-EGFR-D770_N771 insNPG, Ba/F3-EGFR-N771_P772 insH, Ba/F3-EGFR-H773_V774 insNPH, Ba/F3-EGFR-D770_N771 insSVD C797S, Ba/F3-EGFR-E746_A750del C797S, Ba/F3-EGFR-L858R C797S, Ba/F3-EGFR L861Q and Ba/F3-ERBB2-A775_G776insYVMA” for “Ba/F3-EGFR-L858R, Ba/F3-EGFR-delLREA,”

Where [9] appears, read: Table 8, without IL-3, 48 h, read-out: BA/F3 (EGFR del19/delREA (746-750) IC50).

Ba/F3-EGFR-L858R cells, sequence (P00533 whole entry L858R): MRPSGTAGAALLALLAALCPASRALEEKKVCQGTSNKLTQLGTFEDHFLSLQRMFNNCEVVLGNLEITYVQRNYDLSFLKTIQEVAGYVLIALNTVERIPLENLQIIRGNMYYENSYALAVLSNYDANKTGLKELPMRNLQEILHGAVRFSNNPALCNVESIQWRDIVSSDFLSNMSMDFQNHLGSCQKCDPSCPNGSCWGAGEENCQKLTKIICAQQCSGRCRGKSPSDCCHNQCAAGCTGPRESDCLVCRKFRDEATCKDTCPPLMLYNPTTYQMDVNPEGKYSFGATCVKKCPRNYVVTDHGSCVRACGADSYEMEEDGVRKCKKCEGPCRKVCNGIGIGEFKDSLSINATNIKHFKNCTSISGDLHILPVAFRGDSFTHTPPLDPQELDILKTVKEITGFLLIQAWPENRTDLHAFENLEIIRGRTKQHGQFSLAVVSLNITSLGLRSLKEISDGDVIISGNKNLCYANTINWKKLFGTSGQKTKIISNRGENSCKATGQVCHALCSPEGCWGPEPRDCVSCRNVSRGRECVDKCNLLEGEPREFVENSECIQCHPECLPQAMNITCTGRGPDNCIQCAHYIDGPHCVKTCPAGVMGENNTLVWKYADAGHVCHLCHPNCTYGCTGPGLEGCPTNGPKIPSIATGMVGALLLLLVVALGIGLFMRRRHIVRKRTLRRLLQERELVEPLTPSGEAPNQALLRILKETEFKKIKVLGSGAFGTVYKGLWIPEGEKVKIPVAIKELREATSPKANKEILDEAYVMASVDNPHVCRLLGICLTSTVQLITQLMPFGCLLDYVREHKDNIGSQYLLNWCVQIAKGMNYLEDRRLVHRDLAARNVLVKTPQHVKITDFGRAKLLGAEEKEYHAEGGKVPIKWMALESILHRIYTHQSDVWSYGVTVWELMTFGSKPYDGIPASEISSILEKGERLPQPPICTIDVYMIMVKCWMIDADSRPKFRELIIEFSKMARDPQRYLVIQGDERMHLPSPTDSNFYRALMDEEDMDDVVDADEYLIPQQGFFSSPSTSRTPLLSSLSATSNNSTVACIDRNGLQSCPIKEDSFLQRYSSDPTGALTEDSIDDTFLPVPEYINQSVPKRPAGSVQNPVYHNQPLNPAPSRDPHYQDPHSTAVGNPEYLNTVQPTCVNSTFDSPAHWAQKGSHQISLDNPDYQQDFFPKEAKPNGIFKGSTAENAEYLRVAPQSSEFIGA
Ba/F3-EGFR-WT cells (BA/F3 wild type EGFR), sequence (P00533 whole entry, change not shown): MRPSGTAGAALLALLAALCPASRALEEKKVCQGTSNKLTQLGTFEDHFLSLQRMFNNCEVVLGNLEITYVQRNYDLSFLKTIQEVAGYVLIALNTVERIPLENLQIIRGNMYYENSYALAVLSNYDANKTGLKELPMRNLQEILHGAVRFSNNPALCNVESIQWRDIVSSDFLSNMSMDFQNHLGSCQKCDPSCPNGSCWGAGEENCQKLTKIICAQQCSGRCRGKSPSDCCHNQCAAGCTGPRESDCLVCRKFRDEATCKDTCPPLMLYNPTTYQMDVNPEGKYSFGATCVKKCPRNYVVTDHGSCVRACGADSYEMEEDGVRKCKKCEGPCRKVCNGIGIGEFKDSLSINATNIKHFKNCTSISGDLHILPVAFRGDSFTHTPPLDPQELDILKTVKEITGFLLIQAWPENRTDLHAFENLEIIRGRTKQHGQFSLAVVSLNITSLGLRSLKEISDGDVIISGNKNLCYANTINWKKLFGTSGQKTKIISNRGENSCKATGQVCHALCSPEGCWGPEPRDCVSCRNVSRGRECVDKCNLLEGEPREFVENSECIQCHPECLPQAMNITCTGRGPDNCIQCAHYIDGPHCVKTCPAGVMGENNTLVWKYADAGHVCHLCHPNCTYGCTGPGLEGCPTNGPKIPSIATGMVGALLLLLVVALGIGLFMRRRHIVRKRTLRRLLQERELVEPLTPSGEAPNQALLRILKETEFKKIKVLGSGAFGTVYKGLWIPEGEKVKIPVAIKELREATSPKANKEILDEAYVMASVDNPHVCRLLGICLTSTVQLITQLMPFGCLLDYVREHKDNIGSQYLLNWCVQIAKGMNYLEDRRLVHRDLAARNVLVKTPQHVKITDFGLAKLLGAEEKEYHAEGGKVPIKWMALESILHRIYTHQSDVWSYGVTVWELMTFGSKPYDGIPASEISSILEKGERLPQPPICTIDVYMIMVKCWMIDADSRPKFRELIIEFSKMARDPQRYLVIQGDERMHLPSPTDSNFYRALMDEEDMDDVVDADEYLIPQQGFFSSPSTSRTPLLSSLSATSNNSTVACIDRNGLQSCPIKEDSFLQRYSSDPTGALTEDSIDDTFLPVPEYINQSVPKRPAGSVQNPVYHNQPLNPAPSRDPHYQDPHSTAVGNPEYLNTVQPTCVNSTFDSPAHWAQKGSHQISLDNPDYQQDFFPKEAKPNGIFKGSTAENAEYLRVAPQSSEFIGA
Ba/F3-EGFR-D770_N771 insNPG cells, sequence (P00533 with tags, fused parts or gaps INS772GNP): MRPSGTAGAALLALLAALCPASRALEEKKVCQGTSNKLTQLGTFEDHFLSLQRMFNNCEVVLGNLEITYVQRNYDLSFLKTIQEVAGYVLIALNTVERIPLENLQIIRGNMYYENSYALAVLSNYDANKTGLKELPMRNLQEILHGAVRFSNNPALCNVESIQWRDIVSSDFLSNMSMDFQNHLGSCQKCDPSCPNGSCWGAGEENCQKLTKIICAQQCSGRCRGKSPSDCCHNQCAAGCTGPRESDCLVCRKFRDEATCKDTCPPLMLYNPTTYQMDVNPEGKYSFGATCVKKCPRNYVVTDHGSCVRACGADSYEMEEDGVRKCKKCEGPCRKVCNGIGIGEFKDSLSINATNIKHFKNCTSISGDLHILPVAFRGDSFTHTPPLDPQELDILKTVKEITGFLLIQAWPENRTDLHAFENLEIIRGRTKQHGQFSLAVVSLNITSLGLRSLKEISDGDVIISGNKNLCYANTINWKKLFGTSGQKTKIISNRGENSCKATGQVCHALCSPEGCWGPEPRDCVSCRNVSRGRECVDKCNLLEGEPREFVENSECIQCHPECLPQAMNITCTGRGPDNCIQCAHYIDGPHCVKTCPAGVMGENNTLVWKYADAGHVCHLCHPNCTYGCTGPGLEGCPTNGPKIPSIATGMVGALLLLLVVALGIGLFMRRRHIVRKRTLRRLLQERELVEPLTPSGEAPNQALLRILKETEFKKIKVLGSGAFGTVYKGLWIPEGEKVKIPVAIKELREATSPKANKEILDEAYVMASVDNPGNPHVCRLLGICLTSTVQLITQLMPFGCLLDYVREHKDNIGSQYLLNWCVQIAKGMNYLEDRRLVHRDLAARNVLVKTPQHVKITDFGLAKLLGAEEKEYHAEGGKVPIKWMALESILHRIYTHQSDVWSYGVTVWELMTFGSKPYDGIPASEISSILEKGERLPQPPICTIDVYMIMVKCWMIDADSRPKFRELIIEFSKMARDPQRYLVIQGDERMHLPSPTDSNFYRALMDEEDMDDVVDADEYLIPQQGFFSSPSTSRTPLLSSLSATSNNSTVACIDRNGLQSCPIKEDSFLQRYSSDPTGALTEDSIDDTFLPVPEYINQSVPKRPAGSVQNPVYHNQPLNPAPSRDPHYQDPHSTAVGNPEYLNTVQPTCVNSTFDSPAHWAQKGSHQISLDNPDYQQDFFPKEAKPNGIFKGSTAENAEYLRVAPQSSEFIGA

For the compound `COC(C)(C)COc1cnccc1-c1[nH]c2c(c1Nc1cccc(F)c1CC(F)F)C(=O)NCC2` [Example 23, 3-{[2-(2,2-difluoroethyl)-3-fluorophenyl]amino}-2-[3-(2-methoxy-2-methylpropoxy)pyridin-4-yl]-1,5,6,7-tetrahydro-4H-pyrrolo[3,2-c]pyridin-4-one], the IC50 in [1] (setting [9]) is 0.26 nM. The GI50 in [2] was determined as 388 nM; on Ba/F3-EGFR-L858R cells (Table 8, without IL-3, 48 h), 3.2 nM.

Turning to `COC(C)(C)COc1cnccc1-c1[nH]c2c(c1Nc1cccc(F)c1OC(F)F)C(=O)NCC2` [Example 19, 3-{[2-(difluoromethoxy)-3-fluorophenyl]amino}-2-[3-(2-methoxy-2-methylpropoxy)pyridin-4-yl]-1,5,6,7-tetrahydro-4H-pyrrolo[3,2-c]pyridin-4-one], the IC50 in assay [1] (setting [9]) came out at 0.32 nM. Further, the GI50 stood at 870 nM in assay [2] and 4.7 nM at Ba/F3-EGFR-L858R cells (Table 8, without IL-3, 48 h).

Consider `COc1c(F)cccc1Nc1c(-c2ccncc2OCC(C)(C)OC)[nH]c2c1C(=O)NCC2` [Example 17, 3-[(3-fluoro-2-methoxyphenyl)amino]-2-[3-(2-methoxy-2-methylpropoxy)pyridin-4-yl]-1,5,6,7-tetrahydro-4H-pyrrolo[3,2-c]pyridin-4-one], for which the GI50 in assay [3] was 15.3 nM; in assay [5], 17.1 nM; in [6], 12.8 nM; in assay [2], 397 nM; on Ba/F3-EGFR-L858R cells (Table 8, without IL-3, 48 h), 1.2 nM; on Ba/F3-EGFR-L858R cells (Table 10, classical activating and uncommon EGFR mutations), 1.49 nM. The IC50 in [4] was 16.6 nM; in assay [1] (setting [9]) it was 0.13 nM; in [1] (Table 10, classical activating and uncommon EGFR mutations, read-out: BA/F3 (EGFR E746_A750del) IC50) it was 0.575 nM; in the assay with Ba/F3-EGFR L861Q cells it was 25.7 nM; in assay [7], 0.292 nM; in [8], 1.16 nM.
